These results are taken from ChEMBL document CHEMBL5728780, “Cyclic substituted imidazo[4,5-c]quinoline derivatives” (2021).

The target of this test is Leucine-rich repeat serine/threonine-protein kinase 2 (Homo sapiens, UniProt Q5S007). The test can be described thus: LRRK2 Assay: LRRK2 kinase activity was measured using Lantha Screen technology from Invitrogen. GST-tagged truncated LRRK2 from Invitrogen (Cat #PV4874) was incubated with a fluorescein-labeled peptide substrate based upon ezrin/radixin/moesin (ERM), also known as LRRKtide (Invitrogen cat #PR8976A), in the presence of a dose response of compound. Upon completion, the assay was stopped and detected with a terbium labeled anti-phospho-ERM antibody (Invitrogen, cat #PR8975A). The assay was carried out under the following protocol: The compound dose response was prepared by diluting compound to a top concentration of 0.3 mM in 100% DMSO and serial diluted by half-log in DMSO to give an 11 point curve, 100× final assay concentration. Using Echo acoustic dispensing, 60 nL of compound was transferred to a low volume Corning 384-well assay plate. 3 μL of a working solution of substrate (200 nM LRRKtide, 2 mM ATP) prepared in assay buffer (50 mM HEPES, pH 7.5, 3 mM MgCl2, with 2 mM DTT and 0.01% Brij35 added fresh) was added to the 60 nL compound assay plate. The kinase reaction was started with 3 μL of a working solution of LRRK2 enzyme at a concentration of 4 μg/mL. The final reaction concentrations were 100 nM LRRKtide, 1 mM ATP, 2 μg/mL LRRK2 enzyme and a compound dose response with a top dose of 3 μM. […].
Chain of Leucine-rich repeat serine/threonine-protein kinase 2 (Q5S007 whole entry, looked up, the tested form may be a part): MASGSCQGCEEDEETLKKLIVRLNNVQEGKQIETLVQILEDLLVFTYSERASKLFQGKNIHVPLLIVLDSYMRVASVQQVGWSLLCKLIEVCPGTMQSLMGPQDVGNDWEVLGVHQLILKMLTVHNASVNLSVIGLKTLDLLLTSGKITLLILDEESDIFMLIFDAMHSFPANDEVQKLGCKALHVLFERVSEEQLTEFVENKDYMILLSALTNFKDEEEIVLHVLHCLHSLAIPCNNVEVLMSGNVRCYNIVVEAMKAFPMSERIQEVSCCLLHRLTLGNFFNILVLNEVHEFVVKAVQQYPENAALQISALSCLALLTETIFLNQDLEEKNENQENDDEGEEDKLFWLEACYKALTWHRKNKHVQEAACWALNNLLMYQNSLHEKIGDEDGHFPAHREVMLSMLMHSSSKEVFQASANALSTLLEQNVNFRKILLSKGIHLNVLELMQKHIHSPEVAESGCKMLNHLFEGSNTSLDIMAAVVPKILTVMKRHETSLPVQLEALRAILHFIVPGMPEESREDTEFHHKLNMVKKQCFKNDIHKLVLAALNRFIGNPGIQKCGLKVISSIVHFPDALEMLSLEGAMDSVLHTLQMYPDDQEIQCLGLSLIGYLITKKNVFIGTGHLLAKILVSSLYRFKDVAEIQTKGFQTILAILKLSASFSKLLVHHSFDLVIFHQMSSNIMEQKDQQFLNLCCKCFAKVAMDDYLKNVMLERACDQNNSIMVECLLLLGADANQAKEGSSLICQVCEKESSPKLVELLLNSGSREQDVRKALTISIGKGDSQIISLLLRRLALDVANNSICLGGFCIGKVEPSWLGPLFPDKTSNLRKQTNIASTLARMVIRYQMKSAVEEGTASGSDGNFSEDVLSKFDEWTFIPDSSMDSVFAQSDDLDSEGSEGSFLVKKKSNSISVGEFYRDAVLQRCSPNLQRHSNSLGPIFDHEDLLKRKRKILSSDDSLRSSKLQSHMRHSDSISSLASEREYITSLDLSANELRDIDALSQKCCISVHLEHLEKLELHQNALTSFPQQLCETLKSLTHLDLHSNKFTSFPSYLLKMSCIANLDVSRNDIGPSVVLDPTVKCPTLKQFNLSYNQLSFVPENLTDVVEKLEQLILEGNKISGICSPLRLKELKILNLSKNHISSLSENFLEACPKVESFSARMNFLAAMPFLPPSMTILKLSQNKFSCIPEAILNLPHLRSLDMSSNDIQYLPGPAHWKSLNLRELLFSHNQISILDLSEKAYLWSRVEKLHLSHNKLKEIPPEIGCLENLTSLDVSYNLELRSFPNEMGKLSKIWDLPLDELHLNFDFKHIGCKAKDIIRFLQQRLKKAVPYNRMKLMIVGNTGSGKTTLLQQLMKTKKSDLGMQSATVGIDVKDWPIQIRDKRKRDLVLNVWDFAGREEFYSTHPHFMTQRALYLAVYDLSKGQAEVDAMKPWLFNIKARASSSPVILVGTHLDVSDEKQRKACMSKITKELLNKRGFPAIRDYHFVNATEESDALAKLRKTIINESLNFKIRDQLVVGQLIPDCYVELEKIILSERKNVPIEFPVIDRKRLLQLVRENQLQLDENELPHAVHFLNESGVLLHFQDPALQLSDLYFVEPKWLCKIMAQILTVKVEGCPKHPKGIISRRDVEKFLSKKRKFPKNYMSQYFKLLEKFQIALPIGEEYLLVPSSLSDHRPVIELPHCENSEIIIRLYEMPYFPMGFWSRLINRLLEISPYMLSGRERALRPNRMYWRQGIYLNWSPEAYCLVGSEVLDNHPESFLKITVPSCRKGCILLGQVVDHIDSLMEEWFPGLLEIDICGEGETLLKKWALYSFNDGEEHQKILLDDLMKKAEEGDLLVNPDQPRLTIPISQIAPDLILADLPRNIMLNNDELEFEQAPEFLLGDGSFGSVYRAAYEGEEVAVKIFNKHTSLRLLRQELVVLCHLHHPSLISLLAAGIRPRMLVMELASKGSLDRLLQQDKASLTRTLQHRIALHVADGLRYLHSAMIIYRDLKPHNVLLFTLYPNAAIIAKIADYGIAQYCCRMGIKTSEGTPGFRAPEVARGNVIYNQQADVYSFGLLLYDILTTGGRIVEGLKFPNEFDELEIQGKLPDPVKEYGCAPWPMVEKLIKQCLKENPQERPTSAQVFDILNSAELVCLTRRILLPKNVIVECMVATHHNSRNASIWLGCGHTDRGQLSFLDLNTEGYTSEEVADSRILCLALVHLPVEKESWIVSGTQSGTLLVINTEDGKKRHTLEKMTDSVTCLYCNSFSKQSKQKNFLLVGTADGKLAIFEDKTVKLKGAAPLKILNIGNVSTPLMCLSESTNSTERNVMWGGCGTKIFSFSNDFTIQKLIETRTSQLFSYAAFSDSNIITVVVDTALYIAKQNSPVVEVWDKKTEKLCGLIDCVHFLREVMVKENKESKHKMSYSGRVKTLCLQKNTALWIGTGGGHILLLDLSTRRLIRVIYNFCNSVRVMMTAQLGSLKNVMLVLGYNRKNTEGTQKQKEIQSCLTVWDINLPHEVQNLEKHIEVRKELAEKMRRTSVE

For `CN1CC[C@@H](n2c(C3CCC(F)C3)nc3cnc4ccc(F)cc4c32)C1` (stereo partly specified), the IC50 was above 2840 nM.

Usually IC50 stands for the point on the concentration scale where inhibition reaches its midpoint.
